From ChEMBL document CHEMBL1201862, “PubChem BioAssay data set” (2004)
The source made the active and inactive calls.

What was measured:
[1] = target: Botulinum neurotoxin type A (Clostridium botulinum (strain Hall / ATCC 3502 / NCTC 13319 / Type A), UniProt P0DPI1); assay: High-throughput multiplex microsphere dose response for inhibitors of toxin protease, specifically Botulinum neurotoxin light chain A protease, compounds from Cherry Pick 01.; assay type: functional; conditions: read-out: EC50_MICROM
[2] = target: Protein disulfide-isomerase (Homo sapiens, UniProt P07237); assay: PDI inhibitors, insulin aggregation turbidity, dose response, biochemical, absorbance, cherry-picked samples (AID 602350); assay type: functional
CAAX prenyl protease 2 [3] = target: T1, CAAX prenyl protease 2 (Saccharomyces cerevisiae S288c, UniProt Q03530); assay type: biochemical
T1 sequence (Q03530 whole entry): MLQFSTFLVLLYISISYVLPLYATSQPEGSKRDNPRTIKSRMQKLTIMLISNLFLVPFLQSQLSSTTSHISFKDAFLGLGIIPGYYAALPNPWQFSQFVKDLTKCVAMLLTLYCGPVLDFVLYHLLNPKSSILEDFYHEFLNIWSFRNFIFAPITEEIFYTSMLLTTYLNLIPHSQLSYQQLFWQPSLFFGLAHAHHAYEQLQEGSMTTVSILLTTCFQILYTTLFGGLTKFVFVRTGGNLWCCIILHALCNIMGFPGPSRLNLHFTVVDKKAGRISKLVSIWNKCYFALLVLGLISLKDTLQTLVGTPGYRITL

Trypsin = Trypsin (Sus scrofa, UniProt P00761); assay: porcine trypsin inhibitors, dose response, selectivity assay for Rce1 protease inhibitor project, biochemical, quenched peptide fluorescence, cherry-pick (AID 488789)
Trypsin, sequence (P00761 whole entry): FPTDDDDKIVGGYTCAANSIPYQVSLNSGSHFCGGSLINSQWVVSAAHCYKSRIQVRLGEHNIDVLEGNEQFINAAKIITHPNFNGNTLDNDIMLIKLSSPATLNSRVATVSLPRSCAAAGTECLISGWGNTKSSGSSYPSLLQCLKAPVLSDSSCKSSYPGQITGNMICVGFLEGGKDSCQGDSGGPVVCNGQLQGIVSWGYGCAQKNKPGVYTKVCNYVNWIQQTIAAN

CAAX prenyl protease 2 [4] = target: T1, CAAX prenyl protease 2; assay: yeast Rce1 CaaX protease inhibitors, dose response, biochemical, plate reader, dry powder retest (AID 588851)
CAAX prenyl protease 2 [5] = target: T2, CAAX prenyl protease 2 (Homo sapiens, UniProt Q9Y256); assay: human Rce1 protease inhibitors, dose response, biochemical, plate reader, dry powder samples (AID 588848)
T2 sequence (Q9Y256 whole entry): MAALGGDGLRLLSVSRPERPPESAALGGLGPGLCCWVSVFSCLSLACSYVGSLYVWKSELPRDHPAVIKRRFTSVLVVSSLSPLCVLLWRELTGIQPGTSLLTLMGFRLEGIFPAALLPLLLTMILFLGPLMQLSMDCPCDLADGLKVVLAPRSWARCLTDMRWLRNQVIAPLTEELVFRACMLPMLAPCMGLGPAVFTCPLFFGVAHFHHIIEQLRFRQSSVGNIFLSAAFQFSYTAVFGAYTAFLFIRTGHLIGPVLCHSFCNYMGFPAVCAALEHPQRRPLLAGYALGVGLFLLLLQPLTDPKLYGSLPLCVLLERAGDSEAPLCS

Cytochrome P450 1A2 = target: T3, Cytochrome P450 1A2 (Homo sapiens, UniProt P05177);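 also: PubChem cytochrome P450 panel assay, CYP1A2 panel member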
T3 sequence (P05177 whole entry): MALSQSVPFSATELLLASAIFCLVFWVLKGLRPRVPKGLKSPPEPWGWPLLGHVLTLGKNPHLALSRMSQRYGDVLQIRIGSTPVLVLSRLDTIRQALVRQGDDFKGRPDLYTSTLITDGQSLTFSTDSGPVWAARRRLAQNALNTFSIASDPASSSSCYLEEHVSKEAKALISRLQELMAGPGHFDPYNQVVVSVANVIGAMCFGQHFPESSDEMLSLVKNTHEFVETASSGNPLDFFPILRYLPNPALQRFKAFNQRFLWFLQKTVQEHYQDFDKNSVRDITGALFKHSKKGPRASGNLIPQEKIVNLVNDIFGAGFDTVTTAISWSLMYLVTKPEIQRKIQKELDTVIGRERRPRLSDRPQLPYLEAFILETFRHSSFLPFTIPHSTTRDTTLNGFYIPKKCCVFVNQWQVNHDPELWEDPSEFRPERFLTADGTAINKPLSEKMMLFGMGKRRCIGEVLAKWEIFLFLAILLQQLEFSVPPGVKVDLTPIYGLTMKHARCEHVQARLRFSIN

Aminopeptidase N = target: T4, Aminopeptidase N (Plasmodium falciparum FcB1/Columbia, UniProt O96935); assay: P. falciparum M1AAP inhibitors, biochemical, fluorogenic H-Leu-NHMec substrate, 1536-well (AID 1445); parameters: species or system Plasmodium falciparum 3D7, 3D7
T4 sequence (O96935 whole entry): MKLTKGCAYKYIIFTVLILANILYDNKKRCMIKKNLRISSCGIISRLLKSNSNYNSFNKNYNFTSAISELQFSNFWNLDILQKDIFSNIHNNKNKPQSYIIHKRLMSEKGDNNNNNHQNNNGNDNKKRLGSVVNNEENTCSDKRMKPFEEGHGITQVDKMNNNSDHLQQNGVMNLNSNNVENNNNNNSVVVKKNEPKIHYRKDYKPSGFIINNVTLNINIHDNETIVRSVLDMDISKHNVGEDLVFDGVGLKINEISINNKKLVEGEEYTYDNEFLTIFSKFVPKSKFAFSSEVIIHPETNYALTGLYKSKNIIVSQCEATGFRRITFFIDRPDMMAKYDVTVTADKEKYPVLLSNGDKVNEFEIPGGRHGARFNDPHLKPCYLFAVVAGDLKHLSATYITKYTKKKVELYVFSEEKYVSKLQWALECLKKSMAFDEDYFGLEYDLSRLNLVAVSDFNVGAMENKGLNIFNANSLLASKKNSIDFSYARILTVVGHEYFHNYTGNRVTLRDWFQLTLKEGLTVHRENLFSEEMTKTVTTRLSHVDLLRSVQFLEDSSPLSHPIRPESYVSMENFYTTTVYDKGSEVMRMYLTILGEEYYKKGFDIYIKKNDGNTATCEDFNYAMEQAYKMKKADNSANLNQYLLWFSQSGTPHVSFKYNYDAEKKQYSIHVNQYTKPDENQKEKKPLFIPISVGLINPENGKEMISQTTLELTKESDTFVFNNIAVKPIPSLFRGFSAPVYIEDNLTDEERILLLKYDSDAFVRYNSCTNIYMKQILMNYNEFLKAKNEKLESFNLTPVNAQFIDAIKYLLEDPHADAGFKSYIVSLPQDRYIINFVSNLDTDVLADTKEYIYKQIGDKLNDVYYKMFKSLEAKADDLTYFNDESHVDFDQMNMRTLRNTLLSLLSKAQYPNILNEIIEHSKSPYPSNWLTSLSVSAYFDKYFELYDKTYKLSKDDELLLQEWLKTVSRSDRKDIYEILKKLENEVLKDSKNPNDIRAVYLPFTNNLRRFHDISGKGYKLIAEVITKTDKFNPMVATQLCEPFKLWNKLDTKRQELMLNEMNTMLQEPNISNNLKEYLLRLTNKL

[6] = target: 72 kDa type IV collagenase (Homo sapiens, UniProt P08253); assay: Dose Response validation of uHTS RPN11 inhibitor hits using a MMP-2 Fluorescence assay.; assay type: functional
[7] = target: T5, Rac GTPase-activating protein 1 (Homo sapiens, UniProt Q9H0H5); assay: MgcRacGAP GTPase-activating activity inhibitors, confirmation, biochemical, ADP Hunter fluorescence, primary and confirmatory (AID 624330); assay type: functional
T5 sequence (Q9H0H5 whole entry): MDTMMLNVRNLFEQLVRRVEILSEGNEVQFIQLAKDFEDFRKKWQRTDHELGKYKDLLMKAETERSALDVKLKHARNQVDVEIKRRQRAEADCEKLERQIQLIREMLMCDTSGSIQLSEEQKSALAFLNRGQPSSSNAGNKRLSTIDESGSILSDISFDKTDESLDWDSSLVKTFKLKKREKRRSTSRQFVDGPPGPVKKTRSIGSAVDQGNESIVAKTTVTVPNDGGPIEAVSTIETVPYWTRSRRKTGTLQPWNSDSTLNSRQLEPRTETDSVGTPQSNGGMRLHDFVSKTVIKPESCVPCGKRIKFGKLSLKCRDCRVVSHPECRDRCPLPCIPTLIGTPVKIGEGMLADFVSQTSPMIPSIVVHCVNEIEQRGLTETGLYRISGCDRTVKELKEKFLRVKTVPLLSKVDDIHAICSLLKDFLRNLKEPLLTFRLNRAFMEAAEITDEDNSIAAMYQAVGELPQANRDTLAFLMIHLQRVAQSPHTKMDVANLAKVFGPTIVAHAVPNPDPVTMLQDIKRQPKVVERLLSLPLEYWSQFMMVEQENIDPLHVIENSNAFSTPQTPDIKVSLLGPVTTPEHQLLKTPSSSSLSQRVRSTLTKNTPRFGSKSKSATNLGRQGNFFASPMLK

[8] = target: 26S proteasome non-ATPase regulatory subunit 14 (Homo sapiens, UniProt O00487); assay: inhibition of proteasome subunit RPN11 – biochemical, fluorescence polarization, uHTS hits, confirmation (AID 602368); assay type: functional
26S proteasome non-ATPase regulatory subunit 14, sequence (O00487 whole entry): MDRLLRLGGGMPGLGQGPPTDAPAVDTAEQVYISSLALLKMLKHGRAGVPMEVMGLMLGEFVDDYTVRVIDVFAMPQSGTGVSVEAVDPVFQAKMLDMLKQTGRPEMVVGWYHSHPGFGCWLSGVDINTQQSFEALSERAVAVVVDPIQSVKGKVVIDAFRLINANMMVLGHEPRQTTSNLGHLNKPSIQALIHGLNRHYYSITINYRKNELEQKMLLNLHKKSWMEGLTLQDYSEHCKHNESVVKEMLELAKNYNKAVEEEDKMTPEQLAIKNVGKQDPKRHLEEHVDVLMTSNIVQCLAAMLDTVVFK

[9] = CFTR ΔF508 corrector activity in bronchial cells, dose response, human bronchial epithelial cells, plate reader, cherry-pick, two tests (AID 743267); assay type: functional, cell-based
Prothrombin = Prothrombin (Bos taurus, UniProt P00735); assay: thrombin inhibition, dose response, biochemical, fluorescence polarization, uHTS hits (AID 602369); assay type: functional
[10] = target: Dual specificity tyrosine-phosphorylation-regulated kinase 1B (Homo sapiens, UniProt Q9Y463); assay: Navigating the Kinome. Panel member name: DYRK1B; assay type: functional
Focal adhesion kinase 1 = Focal adhesion kinase 1 (Homo sapiens, UniProt Q05397); assay type: functional;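 also: measured as one member of a kinome panel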
Focal adhesion kinase 1, sequence (Q05397 whole entry): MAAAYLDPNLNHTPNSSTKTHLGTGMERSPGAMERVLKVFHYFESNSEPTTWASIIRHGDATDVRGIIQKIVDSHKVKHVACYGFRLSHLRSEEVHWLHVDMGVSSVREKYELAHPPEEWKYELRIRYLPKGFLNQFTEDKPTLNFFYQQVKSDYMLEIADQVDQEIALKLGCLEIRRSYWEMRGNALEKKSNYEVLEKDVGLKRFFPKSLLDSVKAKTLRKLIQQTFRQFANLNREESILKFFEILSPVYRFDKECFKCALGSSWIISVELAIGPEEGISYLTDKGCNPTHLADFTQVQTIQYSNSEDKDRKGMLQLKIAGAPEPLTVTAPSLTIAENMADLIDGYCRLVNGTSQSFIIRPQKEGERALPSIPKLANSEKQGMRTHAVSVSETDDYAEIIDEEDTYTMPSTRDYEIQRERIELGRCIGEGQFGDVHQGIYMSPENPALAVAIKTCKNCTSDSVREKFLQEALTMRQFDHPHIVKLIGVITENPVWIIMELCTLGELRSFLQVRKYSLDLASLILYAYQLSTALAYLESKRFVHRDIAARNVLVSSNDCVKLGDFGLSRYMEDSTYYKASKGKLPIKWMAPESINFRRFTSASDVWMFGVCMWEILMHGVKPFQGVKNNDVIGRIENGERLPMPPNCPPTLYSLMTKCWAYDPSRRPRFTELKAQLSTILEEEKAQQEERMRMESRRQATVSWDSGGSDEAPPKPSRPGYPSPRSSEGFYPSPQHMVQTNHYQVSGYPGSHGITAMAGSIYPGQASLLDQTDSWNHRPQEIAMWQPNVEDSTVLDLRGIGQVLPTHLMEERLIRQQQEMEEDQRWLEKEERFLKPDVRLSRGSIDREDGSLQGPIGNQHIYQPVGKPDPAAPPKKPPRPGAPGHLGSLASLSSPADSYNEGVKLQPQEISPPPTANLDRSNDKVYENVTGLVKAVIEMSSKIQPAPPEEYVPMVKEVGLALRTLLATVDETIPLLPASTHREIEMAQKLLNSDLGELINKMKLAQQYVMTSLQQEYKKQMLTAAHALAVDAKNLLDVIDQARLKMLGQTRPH

[11] = target: Cyclin-dependent kinase 8 (Homo sapiens, UniProt P49336); assay: Navigating the Kinome. Panel member name: CDK8; assay type: functional
Cyclin-dependent kinase 8, sequence (P49336 whole entry, canonical isoform): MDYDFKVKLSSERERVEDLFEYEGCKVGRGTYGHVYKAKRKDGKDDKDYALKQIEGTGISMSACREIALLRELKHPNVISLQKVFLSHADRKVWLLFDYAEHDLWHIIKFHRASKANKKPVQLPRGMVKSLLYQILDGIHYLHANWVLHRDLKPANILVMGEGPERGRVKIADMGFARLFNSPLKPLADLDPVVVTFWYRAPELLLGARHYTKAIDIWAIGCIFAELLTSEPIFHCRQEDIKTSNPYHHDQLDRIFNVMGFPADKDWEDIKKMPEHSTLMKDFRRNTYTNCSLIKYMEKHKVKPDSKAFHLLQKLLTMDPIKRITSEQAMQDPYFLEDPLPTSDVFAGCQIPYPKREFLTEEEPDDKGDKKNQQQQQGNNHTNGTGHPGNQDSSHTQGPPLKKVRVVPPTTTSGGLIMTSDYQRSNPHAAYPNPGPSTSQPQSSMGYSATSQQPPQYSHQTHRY

[12] = target: Casein kinase I isoform alpha (Homo sapiens, UniProt P48729); assay type: functional
[13] = target: Cyclin-dependent kinase 5 (Homo sapiens, UniProt Q00535); assay type: functional;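 also: CDK5 measured as one member of a kinase profiling panel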
Cyclin-dependent kinase 5, sequence (Q00535 whole entry, the tested form may be a part): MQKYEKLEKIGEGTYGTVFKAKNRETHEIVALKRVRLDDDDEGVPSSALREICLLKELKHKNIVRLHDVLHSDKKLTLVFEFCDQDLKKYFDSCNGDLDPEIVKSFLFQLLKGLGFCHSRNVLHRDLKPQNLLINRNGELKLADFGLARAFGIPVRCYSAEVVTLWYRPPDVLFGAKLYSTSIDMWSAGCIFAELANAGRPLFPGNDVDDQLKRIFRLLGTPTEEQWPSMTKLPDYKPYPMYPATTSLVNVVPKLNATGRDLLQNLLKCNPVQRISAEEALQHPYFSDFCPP

LIM domain kinase 1 = LIM domain kinase 1 (Homo sapiens, UniProt P53667); assay: Navigating the Kinome. Panel member name: LIMK1; assay type: functional
LIM domain kinase 1, sequence (P53667 whole entry, the tested form may be a part): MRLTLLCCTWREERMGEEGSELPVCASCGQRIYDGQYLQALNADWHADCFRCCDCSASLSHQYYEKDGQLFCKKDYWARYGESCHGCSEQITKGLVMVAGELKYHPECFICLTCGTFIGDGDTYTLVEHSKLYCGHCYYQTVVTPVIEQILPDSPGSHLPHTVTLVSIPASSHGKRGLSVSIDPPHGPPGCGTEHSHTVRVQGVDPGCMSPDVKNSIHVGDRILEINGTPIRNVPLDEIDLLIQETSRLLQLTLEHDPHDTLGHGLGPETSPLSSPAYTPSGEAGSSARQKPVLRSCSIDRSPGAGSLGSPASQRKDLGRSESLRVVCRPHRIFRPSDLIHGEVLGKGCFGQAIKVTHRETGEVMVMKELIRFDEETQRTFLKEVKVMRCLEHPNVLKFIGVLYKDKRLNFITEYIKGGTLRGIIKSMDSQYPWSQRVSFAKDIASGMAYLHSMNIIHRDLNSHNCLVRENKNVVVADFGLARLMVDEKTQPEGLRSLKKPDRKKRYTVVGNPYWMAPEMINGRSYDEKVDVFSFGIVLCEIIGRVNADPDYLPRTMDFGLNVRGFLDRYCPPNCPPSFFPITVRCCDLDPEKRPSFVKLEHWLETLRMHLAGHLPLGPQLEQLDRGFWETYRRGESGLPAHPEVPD

[14] = target: cAMP-dependent protein kinase catalytic subunit PRKX (Homo sapiens, UniProt P51817); assay type: functional
[15] = target: Tyrosine-protein kinase receptor TYRO3 (Homo sapiens, UniProt Q06418); assay type: functional;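 also: TYRO3 value obtained as one member of a kinome-wide profiling panel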
[16] = target: Serine/threonine-protein kinase Chk1 (Homo sapiens, UniProt O14757); assay type: functional;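 also: measured as one member of a kinome-wide kinase profiling panel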
[17] = target: Leucine-rich repeat serine/threonine-protein kinase 2 (Homo sapiens, UniProt Q5S007); assay type: functional;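 also: value from a broad kinome-wide panel profiling study in which LRRK2 was one of the kinases tested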
[18] = target: Dual specificity protein kinase CLK4 (Homo sapiens, UniProt Q9HAZ1); assay type: functional
Dual specificity protein kinase CLK4, sequence (Q9HAZ1 whole entry): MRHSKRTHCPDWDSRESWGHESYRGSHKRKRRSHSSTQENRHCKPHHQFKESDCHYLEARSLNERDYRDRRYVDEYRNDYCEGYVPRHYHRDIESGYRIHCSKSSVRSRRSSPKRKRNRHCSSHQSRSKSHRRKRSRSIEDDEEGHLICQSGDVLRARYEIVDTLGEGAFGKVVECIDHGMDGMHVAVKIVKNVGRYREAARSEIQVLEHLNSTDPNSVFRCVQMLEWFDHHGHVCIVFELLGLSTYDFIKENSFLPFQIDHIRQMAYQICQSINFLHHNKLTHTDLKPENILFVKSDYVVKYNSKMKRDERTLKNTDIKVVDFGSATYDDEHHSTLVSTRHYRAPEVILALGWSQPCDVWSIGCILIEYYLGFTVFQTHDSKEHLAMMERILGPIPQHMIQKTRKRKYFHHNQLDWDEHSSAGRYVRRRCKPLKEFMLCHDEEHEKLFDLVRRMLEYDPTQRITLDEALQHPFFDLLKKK

[19] = target: Leukocyte tyrosine kinase receptor (Homo sapiens, UniProt P29376); assay: Navigating the Kinome. Panel member name: LTK; assay type: functional
[20] = target: Death-associated protein kinase 3 (Homo sapiens, UniProt O43293); assay type: functional;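 also: measured as one member of a kinome-wide profiling panel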
[21] = target: 5'-AMP-activated protein kinase catalytic subunit alpha-1 (Homo sapiens, UniProt Q13131); assay type: functional
[22] = target: Dual specificity tyrosine-phosphorylation-regulated kinase 1A (Homo sapiens, UniProt Q13627); assay type: functional;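 also: measured against DYRK1A as one member of a broad kinome profiling panel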
[23] = target: Serine/threonine-protein kinase pim-1 (Homo sapiens, UniProt P11309); assay type: functional
Activin receptor type-1 = target: T6, Activin receptor type-1 (Homo sapiens, UniProt Q04771); assay: Navigating the Kinome. Panel member name: ACVR1; assay type: functional
T6 sequence (Q04771 whole entry): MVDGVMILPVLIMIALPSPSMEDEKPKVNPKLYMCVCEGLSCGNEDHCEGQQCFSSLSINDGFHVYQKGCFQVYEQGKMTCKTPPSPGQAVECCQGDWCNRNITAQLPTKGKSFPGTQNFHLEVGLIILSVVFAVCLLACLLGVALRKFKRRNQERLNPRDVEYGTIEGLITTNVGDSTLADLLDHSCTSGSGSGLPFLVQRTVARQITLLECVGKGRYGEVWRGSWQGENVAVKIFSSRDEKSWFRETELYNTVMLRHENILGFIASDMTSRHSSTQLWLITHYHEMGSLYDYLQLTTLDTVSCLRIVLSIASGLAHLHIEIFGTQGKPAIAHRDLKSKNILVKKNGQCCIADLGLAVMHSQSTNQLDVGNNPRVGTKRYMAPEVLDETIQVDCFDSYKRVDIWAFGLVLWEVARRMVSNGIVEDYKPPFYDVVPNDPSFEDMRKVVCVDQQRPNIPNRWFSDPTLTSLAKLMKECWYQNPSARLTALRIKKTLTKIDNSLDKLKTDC

[24] = target: Proto-oncogene tyrosine-protein kinase receptor Ret (Homo sapiens, UniProt P07949); assay type: functional;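 also: measured within a kinome-wide profiling panel, RET as the panel member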
Proto-oncogene tyrosine-protein kinase receptor Ret, sequence (P07949 whole entry): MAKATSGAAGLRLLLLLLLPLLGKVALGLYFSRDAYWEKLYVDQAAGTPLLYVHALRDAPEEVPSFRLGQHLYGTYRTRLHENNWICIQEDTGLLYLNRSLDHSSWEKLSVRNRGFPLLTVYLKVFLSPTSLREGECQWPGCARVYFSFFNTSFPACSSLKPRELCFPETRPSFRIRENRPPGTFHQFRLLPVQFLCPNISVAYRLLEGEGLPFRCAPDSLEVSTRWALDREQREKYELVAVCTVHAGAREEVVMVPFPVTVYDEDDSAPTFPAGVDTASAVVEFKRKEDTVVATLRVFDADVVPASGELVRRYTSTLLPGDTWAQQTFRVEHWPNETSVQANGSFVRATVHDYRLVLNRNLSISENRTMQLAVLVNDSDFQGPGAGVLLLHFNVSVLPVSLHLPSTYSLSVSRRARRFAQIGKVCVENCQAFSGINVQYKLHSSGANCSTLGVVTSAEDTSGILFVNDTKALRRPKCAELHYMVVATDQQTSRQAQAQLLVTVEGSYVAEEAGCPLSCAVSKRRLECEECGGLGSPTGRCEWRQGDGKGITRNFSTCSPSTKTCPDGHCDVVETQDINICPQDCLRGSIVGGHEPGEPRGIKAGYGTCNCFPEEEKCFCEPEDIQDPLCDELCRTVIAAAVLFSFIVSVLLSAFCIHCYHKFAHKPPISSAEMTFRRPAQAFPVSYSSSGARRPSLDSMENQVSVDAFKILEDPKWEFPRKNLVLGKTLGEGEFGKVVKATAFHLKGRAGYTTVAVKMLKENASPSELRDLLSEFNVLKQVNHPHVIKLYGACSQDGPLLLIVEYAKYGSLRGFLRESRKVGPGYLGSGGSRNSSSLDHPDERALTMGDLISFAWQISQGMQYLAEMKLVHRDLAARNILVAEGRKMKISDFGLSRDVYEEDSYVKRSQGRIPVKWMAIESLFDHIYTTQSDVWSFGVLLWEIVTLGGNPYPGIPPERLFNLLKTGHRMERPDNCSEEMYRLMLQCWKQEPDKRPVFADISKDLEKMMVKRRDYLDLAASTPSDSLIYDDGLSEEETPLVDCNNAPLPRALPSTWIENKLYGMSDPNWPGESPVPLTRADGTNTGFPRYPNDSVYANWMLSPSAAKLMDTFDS

[25] = target: DNA dC->dU-editing enzyme APOBEC-3A (Homo sapiens, UniProt P31941); assay: SAR analysis of small molecule inhibitors of APOBEC3A DNA Deaminase via a fluorescence-based single-stranded DNA deaminase assay.; assay type: functional; conditions: read-out: IC50_Mean
[26] = target: DNA dC->dU-editing enzyme APOBEC-3G (Homo sapiens, UniProt Q9HC16); assay: APOBEC3G deaminase inhibitors, SAR follow-up, biochemical, fluorescence, single-stranded DNA substrate (AID 602136); assay type: functional; conditions: read-out: IC50_Mean
DNA dC->dU-editing enzyme APOBEC-3G, sequence (Q9HC16 whole entry): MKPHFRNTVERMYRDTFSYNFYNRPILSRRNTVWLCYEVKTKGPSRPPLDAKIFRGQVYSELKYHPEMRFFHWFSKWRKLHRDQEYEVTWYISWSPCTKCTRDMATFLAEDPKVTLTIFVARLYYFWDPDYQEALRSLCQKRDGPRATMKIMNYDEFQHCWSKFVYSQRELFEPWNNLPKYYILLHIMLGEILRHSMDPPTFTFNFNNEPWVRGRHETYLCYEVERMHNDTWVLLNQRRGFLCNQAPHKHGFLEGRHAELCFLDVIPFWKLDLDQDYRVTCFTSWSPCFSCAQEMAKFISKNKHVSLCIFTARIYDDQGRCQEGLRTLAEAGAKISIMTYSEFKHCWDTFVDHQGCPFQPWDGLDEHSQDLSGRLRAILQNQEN

With `COc1ccc(OC)c(-c2nc3cc4ccccc4cc3nc2-c2ccccc2)c1` the EC50 [1] was 17.9 µM (active).

With `COc1ccc(C(=O)Nc2ccccc2C(=O)NCc2ccco2)cc1` the AC50 [2] was 0.819 µM (active).

For `CCOc1cc(S(=O)(=O)N(Cc2ccccc2)Cc2ccccc2)c(OCC)cc1-n1cnnn1`, the AC50 (CAAX prenyl protease 2 [3]) was 1.45 µM (active), the AC50 (Trypsin) was 34 µM (active) and the AC50 (CAAX prenyl protease 2 [4]) was 16.8 µM (active). The AC50 (CAAX prenyl protease 2 [5]) was 35.6 µM (active) and the AC50 (Cytochrome P450 1A2) was 15.8 µM (inconclusive).

With `CCOc1cc(/C=C2\C(=N)N3N=C(S(=O)(=O)CC)SC3=NC2=O)ccc1O` the IC50 (Aminopeptidase N) was 55.7 µM (active), the IC50 [6] was > 100 µM (inactive) and the IC50 [7] was 79.6 µM (active). For the same molecule, the IC50 [8] was 28.6 µM (active), the AC50 [9] was 24.9 µM (active) and the IC50 (Prothrombin) was 34.8 µM (active).

With `O=C1NS(=O)(=O)c2ccc(Cl)cc21` the Ki [10] was 20 µM (active), the Ki (Focal adhesion kinase 1) was 79.4 µM (active) and the Ki [11] was 63.1 µM (active). The Ki [12] was 100 µM (active), the Ki [13] was 50.1 µM (active) and the Ki (LIM domain kinase 1) was 25.1 µM (active). For the same molecule, the Ki [14] was 63.1 µM (active), the Ki [15] was 20 µM (active) and the Ki [16] was 79.4 µM (active). The Ki [17] was 50.1 µM (active), the Ki [18] was 63.1 µM (active) and the Ki [19] was 31.6 µM (active). The Ki [20] was 31.6 µM (active), the Ki [21] was 50.1 µM (active) and the Ki [22] was 20 µM (active). For the same molecule, the Ki [23] was 79.4 µM (active), the Ki (Activin receptor type-1) was 79.4 µM (active) and the Ki [24] was 100 µM (active).

With `Cc1cc(C(=O)N2CCCC(NS(C)(=O)=O)C2)c(C)n1Cc1ccccc1` (stereo not drawn) the IC50 [25] was > 99 µM (inactive) and the IC50 [26] was > 99 µM (inactive).
